Experimental data as given in US20080152717A1 (ISP INVESTMENTS, INC., priority 2006, published 2008).

Test: Relative bioavailability in fasted male Sprague Dawley rats, oral solid dose 100 mg/kg (Example 2)
Type: in vivo
Details: male Sprague Dawley rat, oral solid dose 100 mg/kg
Description: The relative bioavailability of the PVP based composition of Example 1 was compared to the crystalline form in male Sprague Dawley rat in a parallel study design. An oral, solid dose of 100 mg/kg was administered to the rats in the fasted state.

Question: Which “AUC0-24h (area under the drug plasma concentration vs. time profile)” value does the source give for `CCCCC(=O)N(Cc1ccc(-c2ccccc2-c2nnn[nH]2)cc1)[C@H](C(=O)O)C(C)C` [Valsartan, N-(1-oxopentyl)-N-[[2′-(1H-tetrazol-5-yl) [biphenyl]-4-yl]methyl]-L-valine] here?
Answer: 40000 ng·h/mL
